Laboratory results as given in patent US6583179B2, “Substituted aminoalkylamide derivatives as antagonists of follicle stimulating hormone” (Ortho-McNeil Pharmaceutical, Inc., priority 1999, dated 2003).

Biological target: T1, human FSH receptor (Homo sapiens, UniProt P23945)
T1 construct: expressed in transfected cells; host or cells: Chinese Hamster Ovary cells (K-1; ATCC), line rhFSHR-cLUC
T1 sequence (P23945 18-695): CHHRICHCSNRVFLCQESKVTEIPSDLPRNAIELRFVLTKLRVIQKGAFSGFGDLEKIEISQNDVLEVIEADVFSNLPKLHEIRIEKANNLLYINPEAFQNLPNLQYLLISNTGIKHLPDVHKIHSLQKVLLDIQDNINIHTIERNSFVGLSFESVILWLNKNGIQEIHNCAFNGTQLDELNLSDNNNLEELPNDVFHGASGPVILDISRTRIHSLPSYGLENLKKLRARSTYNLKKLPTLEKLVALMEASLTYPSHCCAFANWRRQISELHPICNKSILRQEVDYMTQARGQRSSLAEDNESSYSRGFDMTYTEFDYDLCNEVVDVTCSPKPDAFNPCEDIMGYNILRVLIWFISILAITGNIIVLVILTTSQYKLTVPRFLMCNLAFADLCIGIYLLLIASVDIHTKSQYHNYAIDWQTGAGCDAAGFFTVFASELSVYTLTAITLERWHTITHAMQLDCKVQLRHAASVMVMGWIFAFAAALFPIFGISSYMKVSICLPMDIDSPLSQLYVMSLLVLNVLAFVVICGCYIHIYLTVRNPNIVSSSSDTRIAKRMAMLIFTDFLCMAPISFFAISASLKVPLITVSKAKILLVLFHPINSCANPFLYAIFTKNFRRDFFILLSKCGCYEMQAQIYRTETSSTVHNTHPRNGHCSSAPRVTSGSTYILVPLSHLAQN
Assay: hFSHR CHO cAMP assay (rhFSHR-cLUC cells, FSH-stimulated cAMP, radioimmunoassay)
Format: cell-based
Details: inhibition of cAMP produced by EC70 dose of FSH (4.85 nM); maximum concentration 50 μM
Text: Minimum Essential Medium-Alpha (MEM-alpha), fetal bovine serum (FBS), penicillin, streptomycin, geneticin, trypsin-EDTA, Hanks' Balanced Salt Solution (no Calcium chloride, Magnesium chloride, Magnesium sulfate, or phenol red; Ca-Mg free HBSS) were purchased from Gibco BRL (Gaithersburg, Md.). The cells used for the FSH bioassay (rhFSHR-cLUC) were Chinese Hamster Ovary cells (K-1; ATCC) stably transformed with human FSH receptor (pSVK-FSHr) and a cAMP luciferase reporter gene (responsive CGα-180LUC). Follicle Stimulating Hormone (Metrodin; Fertinex) was purchased from Serono, Ltd. (Norwell, Mass.).
The rhFSHR-cLUC cell cultures were maintained in MEM-Alpha supplemented with 10% heat-inactivated FBS (HIFBS), 100 U/ml penicillin, 100 μg/mL streptomycin, and included 0.1 g/L geneticin for stable cell selection.
Forty-eight hours after the cells were plated in sterile 96-well culture plates (Corning, Corning, N.Y.) the spent media was removed and 50 μl assay media (modified growth media with 2% HIFBS) containing 2 mM IBMX (3-isobutyl-1-methyl-xanthine) was added to the cells. Compounds (25 μl) in the appropriate concentration were added followed 5 minutes later by an EC70 dose of FSH (25 μl; 160 ng/ml; 4.85 nM). After 10 minutes @ 22.5° C. (room temperature) the reaction was terminated by addition of 25 μL 0.5 N hydrochloric acid to each well. The amount of cAMP produced was measured by radioimmunoassay in a FlashPlate (DuPont, Boston, Mass.). To each flash plate 60 μL flash plate buffer was added followed by 40 μL acidified cell sample or cAMP standard, followed with the addition of 100 μl ^125l-cAMP trace. The FlashPlates were sealed, incubated overnight @ room temperature, and counted in a Packard TopCount (Packard Instrument Co., Meriden, Conn.). The cAMP radioimmunoassay results were calculated using DPM conversion and log-logit transformation of % binding (Excel program).
Test compounds were solubilized in 30% dimethyl sulfoxide (DMSO) at a concentration of 10 mM before diluting to appropriate concentrations in assay medium. The final DMSO concentration in the treated cells and in the control cells was 0.75%.
For individual experiments, a set of samples were tested including a vehicle control (assay buffer), a reference compound (hFSH) at a range of concentrations designed to elicit a minimal to maximal response, and several concentrations of test compounds together with an EC70 concentration of standard (hFSH challenge). Each compound was performed in duplicates for the primary evaluation and quadruplicates for the dose-ranging experiments. The cAMP radioimmunoassay raw data (pmol) were calculated to provide average pmol cAMP produced/ml and the percent inhibition was calculated as shown below.
% Inh=[1−(Avg.pmoltest compound+standard)/(Avg.pmolstandard)]×100
EC50 values were calculated from an analysis of the concentration-inhibition data using a linear analysis of the data transformed to a log-logit format.

Row | EC50 | SMILES
1 | 1360 nM | C[C@H](CN(CC(=O)NCCCCCCN)S(=O)(=O)c1ccc(-c2cccc(F)c2)cc1)c1ccccc1 [Compound 401]
2 | 1020 nM | C[C@@H](CN(CC(=O)N1CCC(C2CCNCC2)CC1)S(=O)(=O)c1ccc(-c2ccccc2Cl)cc1)c1ccccc1 [Compound 367]
3 | 900 nM | C[C@H](CN(CC(=O)NCC1CCCC(CN)C1)S(=O)(=O)c1ccc(-c2ccccc2Cl)cc1)c1ccccc1 (stereo partly drawn) [Compound 388]
4 | 9790 nM | COc1ccccc1CCN(CC(=O)N1CCNCC1)S(=O)(=O)c1ccc(-c2ccccc2C)cc1 [Compound 151]
5 | > 50000 nM | CCN(CC)Cc1ccc(CNC(=O)CN(CC(C)c2ccccc2)S(=O)(=O)c2ccc(-c3ccccc3Cl)cc2)cc1 (stereo not drawn) [Compound 472]
6 | 300 nM | COc1ccc(CCN(CC(=O)NCCCCCCN)S(=O)(=O)c2ccc(-c3ccccc3Cl)cc2)cc1 [Compound 502]
7 | ≥ 50000 nM | C[C@@H](CN(CC(=O)NCCCCCN)S(=O)(=O)c1ccc(-c2ccccc2Cl)cc1)c1ccccc1 [Compound 379]
8 | 140 nM | COc1ccccc1CCN(CC(=O)NCCCCCCN)S(=O)(=O)c1ccc(-c2ccccc2Cl)cc1 [Compound 353]
9 | 650 nM | COc1ccccc1CN(CC(=O)NCC1CCCC(CN)C1)S(=O)(=O)c1ccc(-c2ccccc2C)cc1 (stereo not drawn) [Compound 340]
10 | 310 nM | COc1ccccc1CCN(CC(=O)NCC1CCCC(CN)C1)S(=O)(=O)c1ccc(-c2ccccc2Cl)cc1 (stereo not drawn) [Compound 337]
11 | 1930 nM | C[C@@H](CN(CC(=O)NCc1ccc(CN)cc1)S(=O)(=O)c1ccc(C(C)(C)C)cc1)c1ccccc1 [Compound 555]
12 | 400 nM | COc1ccccc1CCN(CC(=O)NCCCCCCN)S(=O)(=O)c1ccc(-c2ccc(Cl)cc2Cl)cc1 [Compound 355]
13 | 1170 nM | C[C@@H](CN(CC(=O)NCC1CCCC(CN)C1)S(=O)(=O)c1ccc(-c2cccc(F)c2)cc1)c1ccccc1 (stereo partly drawn) [Compound 386]
14 | > 50000 nM | CC(=O)NCc1ccc(CNC(=O)CN(C[C@H](C)c2ccccc2)S(=O)(=O)c2ccc(-c3ccccc3Cl)cc2)cc1 [Compound 473]
15 | ≥ 50000 nM | COc1ccccc1CN(CC(=O)N1CCNCC1)S(=O)(=O)c1ccc(-c2ccccc2C)cc1 [Compound 174]
16 | 50000 nM | C[C@@H](CN(CC(=O)NCc1ccc(CN(C)C)cc1)S(=O)(=O)c1ccc(-c2ccccc2Cl)cc1)c1ccccc1 [Compound 471]
17 | 1100 nM | COc1ccccc1CCN(CC(=O)NCC1CCCC(CN)C1)S(=O)(=O)c1ccc(-c2ccc(Cl)cc2Cl)cc1 (stereo not drawn) [Compound 339]
18 | 9460 nM | CCN(CC)Cc1ccc(CNC(=O)CN(C[C@@H](C)c2ccccc2)S(=O)(=O)c2ccc(-c3ccccc3C)cc2)cc1 [Compound 475]
19 | 570 nM | COc1ccccc1CN(CC(=O)NCC1CCCC(CN)C1)S(=O)(=O)c1ccc(-c2ccccc2Cl)cc1 (stereo not drawn) [Compound 341]
20 | 190 nM | Cc1ccccc1-c1ccc(S(=O)(=O)N(CC(=O)NCC2CCC(CN)CC2)C[C@H](C)c2ccccc2)cc1 (stereo partly drawn) [Compound 372]

Row | EC50 | SMILES
21 | 70 nM | C[C@H](CN(CC(=O)NCc1ccc(CN)cc1)S(=O)(=O)c1ccc(-c2cccc(F)c2)cc1)c1ccccc1 [Compound 213]
22 | 7700 nM | C[C@H](CN(CC(=O)NCc1ccc(CN)cc1)C(=O)c1ccc(-c2ccccc2Cl)cc1)c1ccccc1 [Compound 477]
23 | 1200 nM | C[C@@H](CN(CC(=O)NCCCCCN)S(=O)(=O)c1ccc(-c2cccc(F)c2)cc1)c1ccccc1 [Compound 380]
24 | 110 nM | COc1ccccc1CCN(CC(=O)NCCCCCCN)S(=O)(=O)c1ccc(-c2ccccc2C)cc1 [Compound 352]
25 | 980 nM | COc1ccccc1CCN(CC(=O)NCC1CCCC(CN)C1)S(=O)(=O)c1ccc(-c2ccccc2C)cc1 (stereo not drawn) [Compound 336]
26 | ≥ 50000 nM | CC(=O)NCc1ccc(CNC(=O)CN(CC(C)c2ccccc2)S(=O)(=O)c2ccc(-c3ccccc3C)cc2)cc1 (stereo not drawn) [Compound 476]
27 | 2600 nM | C[C@@H](CN(CC(=O)NCc1ccc(CN)cc1)C(=O)Nc1ccc(-c2ccccc2)cc1)c1ccccc1 [Compound 590]
28 | 1200 nM | COc1ccccc1CCN(CC(=O)NCc1ccc(CN)cc1)S(=O)(=O)c1ccccc1-c1ccccc1C [Compound 218]
29 | 700 nM | COc1ccccc1CCN(CC(=O)NCc1cccc(CN)c1)S(=O)(=O)c1ccc(-c2ccccc2C)cc1 [Compound 344]
30 | 50 nM | C[C@@H](CN(CC(=O)NCCCCCCN)S(=O)(=O)c1ccc(-c2ccccc2Cl)cc1)c1ccccc1 [Compound 397]
31 | 530 nM | COc1ccccc1CN(CC(=O)NCC1CCCC(CN)C1)S(=O)(=O)c1ccc(-c2ccc(Cl)cc2Cl)cc1 (stereo not drawn) [Compound 343]
32 | 50 nM | Cc1ccccc1-c1ccc(S(=O)(=O)N(CC(=O)NCc2ccc(CN)cc2)CC(C)c2ccccc2)cc1 (stereo not drawn) [Compound 311]
33 | 4040 nM | CC(CN(CC(=O)NC1CCC(CC2CCC(N)CC2)CC1)S(=O)(=O)c1ccc(-c2ccccc2Cl)cc1)c1ccccc1 (stereo not drawn) [Compound 497]
34 | > 50000 nM | Cc1ccccc1-c1ccc(S(=O)(=O)N(CC(=O)NCc2ccc(CN(C)C)cc2)C[C@@H](C)c2ccccc2)cc1 [Compound 474]
35 | 330 nM | C[C@@H](CN(CC(=O)NCC1CCCC(CN)C1)S(=O)(=O)c1ccc(-c2ccccc2Cl)cc1)c1ccccc1 (stereo partly drawn) [Compound 385]
36 | 230 nM | Cc1ccccc1-c1ccc(S(=O)(=O)N(CC(=O)NCc2cccc(CN)c2)C[C@H](C)c2ccccc2)cc1 [Compound 390]
37 | 440 nM | COc1ccccc1CCN(CC(=O)NCC1CCCC(CN)C1)S(=O)(=O)c1ccc(-c2ccccc2OC)cc1 (stereo not drawn) [Compound 338]
38 | 5630 nM | COc1ccccc1CCN(CC(=O)NCc1ccc(CN)cc1)S(=O)(=O)c1ccc(-c2cccs2)cc1 [Compound 245]
39 | 2570 nM | Cc1ccccc1-c1ccc(S(=O)(=O)N(CC(=O)NCc2ccc(CN)cc2)C2CC2c2ccccc2)cc1 (stereo not drawn) [Compound 320]
